Experimental data from publication PMC3354555, “Partial Purification and Characterization of Rhodanese from Rainbow Trout (Oncorhynchus mykiss) Liver” (The Scientific World Journal, 2012).

Tested on: T1, rainbow trout liver rhodanese (thiosulphate: cyanide sulphurtransferase, EC 2.8.1.1)
T1 construct: gene tst
Details: 50 mM KCN, 25 mM citrate-phosphate-borate pH 10.5, 25°C; apparent; partially purified enzyme

O=S(O)(O)=S [Na2S2O3]
Km: 19.8 mM
